The text below walks through data of PMC9814544 (Communications Chemistry, 2020).

The target of one test is T1, human LOX-1 receptor (Homo sapiens, UniProt P78380).
T1 construct: the cellular HTS screen was done using full-length LOX-1 and human oxLDL; expressed in transfected cells; host or cells: CHO-K1 T-REx (CHO-Trex-hLOX1 clone), vector pT-Rex-EXP-30-hLOX
Description: LOX-1 cellular oxLDL uptake assay (AF594-oxLDL, CHO-Trex-hLOX1). The format is cell-based. From the text:
To identify small molecule inhibitors of LOX-1 mediated oxLDL uptake we developed a cellular high throughput screening (HTS) assay. Small molecule compounds were screened for their ability to block the uptake of AlexaFluor594 (AF594)-labeled human oxLDL into a CHO-K1 cell line with inducible expression of the human LOX-1 receptor. This readout was visualized and images were quantified by fluorescence microscopy (Fig. 1a). As positive controls, cells without induction of LOX-1 as well as a blocking anti-LOX-1 antibody[29] was used (Fig. 1b). More than one million different compounds were screened. Lead-like compounds (molecular weight above 270 Da) were tested at a concentration of 5 µg/ml, whereas a fragment subset (molecular weight below 270 Da) was tested at a tenfold higher concentration to ensure detection of more weakly active but ligand-efficient fragment-like compounds. Employing a hit criterion of lower than 50% of control, a hit rate of 2.8% was observed (Supplementary Fig. 1). These hits were further confirmed by performing two independent assay runs with fresh compound samples, resulting in a confirmation rate of 80% and a confirmed hit rate of 2.2% (Supplementary Fig. 2). To filter out unspecific or false-positive hits, a counter screen was developed and applied for testing the primary hits[30]–[32]. The assay format was identical to the primary assay besides employing a CHO cell line with inducible expression of human HDL scavenger receptor class B type I (SR-BI), an alternative scavenger receptor with low sequence and structural homology to human LOX-1 (Supplementary Fig. 1). Human SR-B1 is a cell surface glycoprotein most highly expressed in liver and steroidogenic tissues and plays a key role in mediating selective HDL cholesterol (HDL-C) uptake in the liver. Its regulation of HDL-C metabolism is believed to be relevant for cardiovascular health and the receptor was therefore chosen as a counter target. Using this single assay, we eliminated compounds that blocked both receptors presumably via an unspecific, non-target related mechanism (Supplementary Fig. 3).
A recombinant CHO-K1 cell line was generated to stably express human LOX-1 under control of a Tetracycline inducible promoter: using Gateway® Cloning (Invitrogen), the hLOX-1 cDNA was cloned into pT-Rex-DEST-30 thus generating pT-Rex-EXP-30-hLOX. The CHO-K1 T-REx host cell line was then transfected with the expression vector pT-Rex-EXP-30-hLOX. Stably transfected cells were selected by Geneticin resistance. Single cell clones expressing human LOX-1 upon induction with Doxycycline were isolated and the best clone selected by qRT-PCR and FACS analysis (CHO-Trex-hLOX1 cell clone). Cells expressing human SR-BI were prepared and used for the assay in a similar fashion (CHO-Trex-hSR-B1 cell line). […]

In the next test the test system is T2, LOX129 (LOX-1).
T2 construct: 6His-tag with thrombin cleavage site (N, cleaved yes); made in house; host or cells: E. coli SHuffle cells (New England BioLabs), pET28a
Briefly: Native ESI-MS of LOX-1 with ligand. The format is binding, human. The settings on record: Vc = 60V; up to 10 eq ligand. As to the method: This is in agreement with the biophysical data obtained so far. The ITC measurements gave a stoichiometry of protein:ligand of 1.8 which fits to multiples of a 2:1 complex. To confirm that the crystallographically observed tetrameric arrangement exists also in solution native Electrospray-Ionization Mass Spectrometry (ESI-MS) analysis was used. A MS experiment using covalent dimeric LOX129 under denaturing conditions was performed giving a mass of 33773 Da, corresponding to a mass difference of 13 Da to the theoretical molecular weight of 33786 Da (Supplementary Fig. 9). This mass difference corresponds to the three intramolecular and the one intermolecular disulfide bonds (14 Da). MS analysis under non denaturing conditions (Fig. 4a) measured LOX129 mainly as a dimer. Only traces of the tetrameric state were detectable. A binding experiment of BI-0115 to LOX-1 was performed using soft MS tuning parameters (Vc = 40V) in order to maintain BI-0115 interactions in the gas phase.
Mass spectrometry experiments were carried out on an electrospray time-of-flight mass spectrometer (LCT, Waters, Manchester, UK) equipped with an automated chip-based nanoESI device (Triversa Nanomate, Advion Biosciences, Ithaca, NY). […]

“And” between values parts separate entries of the source, which are not always exact repeats. Identical values can stand only once. Like-named read-outs stand apart in the source and are kept apart here.

With `CCCN1C(=O)c2ccc(Cl)cc2Nc2ncccc21` [BI-0115], the IC50 on human LOX-1 receptor (eight independent measurements 1-8, Supplementary Table 1, read-out: IC50 on LOX-1, individual measurements) is 7.55 µM and 7.15 µM and 3.34 µM and 2.01 µM and 5.85 µM and 6.95 µM and 5.11 µM and 4.97 µM; at human LOX-1 receptor (mean, BI-0115 n = 8, BI-1580 n = 2, inhibition of AF594-oxLDL internalization, read-out: LOX-1 IC50), 5.37 µM and 5.4 µM; at human LOX-1 receptor (single curve of Fig. 1c, n = 2 per concentration, R^2 = 0.98, read-out: IC50, representative concentration response curve), 7.2 µM. Further, the “extent of inhibition of oxLDL uptake in the cellular context” value on human LOX-1 receptor (in words, reply to reviewers) is given as “full inhibition”. Further, in the test on LOX129 (LOX-1), the “ligand induced tetramerization, increase of the 16+ charge state” value is given as “up to 33%”.
